{"source": "patent EP4806903A1", "about": "“WHOLE-PROCESS TARGETING POLYPEPTIDE, PHARMACEUTICAL COMPLEX THEREOF, DRUG DELIVERY SYSTEM AND USE THEREOF” (Fudan University, priority 2023, dated 2025)", "key": {"Tumor cells U87": {"tested_on": "Tumor cells U87", "assay": "Intracellular DOX detection in U87 cells", "type": "cell-based", "conditions": "4 hours, 37°C", "protocol": "Tumor cells U87 in the logarithmic growth phase and macrophages RAW264.7, both cultured as monolayers, were detached from the culture dishes by digestion with 0.25% trypsin. The single-cell suspensions were prepared in DMEM medium supplemented with 10% fetal bovine serum. Each well of a 6-well plate was seeded with 5 × 10^5 cells in a volume of 2 mL per well. The plates were then transferred to a CO2 incubator and cultured overnight at 37°C under conditions of 5% CO2 and saturated humidity. After overnight incubation, the culture medium was wholly aspirated from each well. DOX, pHA-AHX-VAP-DOX, and pHA-AOnHX-VAP-DOX (n = 1, 2, 3, 5) solutions were added to the wells, and the cells were incubated at 37°C for 4 hours. The supernatant was then discarded. Following cell collection by trypsinization, the cells were washed three times with PBS and counted. After the final wash, any remaining supernatant was wholly removed. To the cell pellet, acidified methanol (Vmethanol : Vmethanoic acid = 98:2) was added, and the cells were subjected to sonication. After centrifugation at 10,000 rpm for 10 minutes, the supernatant was collected and analyzed for DOX concentration."}, "[1]": {"assay": "Saturation solubility in PBS", "type": "physicochemical", "conditions": "aqueous buffer, PBS pH 7.4, 37°C, calculated based on DOX", "experimental": "The mixture was incubated at 37°C for 24 hours, then filtered through a membrane of 0.22 µm. The filtrates were subsequently diluted 10-fold and 20-fold, respectively, and the concentration of DOX was measured."}, "U87 orthotopic glioma": {"tested_on": "U87 orthotopic glioma", "assay": "In vivo pharmacodynamic study, survival of U87 orthotopic glioma mice", "design": "species or system nude mice", "conditions": "single dose of DOX 1 mg/kg, intravenous, every other day from day 5", "protocol": "Approximately 20 g nude mice were anesthetized and fixed onto a stereotaxic apparatus. Orthotopic glioma mouse model was established by injecting 5 µL of U87 cell suspension (5×10^5 cells) with microsyringe into the striatum of the mice (0.6 mm anteroposterior to the bregma, 1.8 mm lateral to the midline, and 3 mm deep). On day 5 after tumor implantation, the mice were randomly divided into four groups, with 10 mice per group."}, "GRP78 protein [2]": {"tested_on": "GRP78 protein", "assay": "Western blot of GRP78 protein on the cell membrane of U87 cells", "type": "cell-based", "protocol": "After cells were subjected to various treatments, the culture medium was removed, and the cells were washed twice with pre-cooled PBS. The cells were then scraped off and collected into an EP tube. Membrane proteins were extracted using a cell membrane protein extraction kit, followed by centrifugation at 12,000 rpm at 4°C to obtain the supernatant, which was stored for later use. The total protein concentration was determined using the BCA assay, after which the sample was mixed with 5× loading buffer at a ratio of 4:1 and heated to denature the proteins. The samples were stored at -20°C for future use. Samples containing approximately 40 µg of protein were subjected to 15% polyacrylamide gel electrophoresis and then transferred onto polyvinylidene fluoride (PVDF) membranes. […]\nAfter U87 cells were treated with free DOX at different concentrations for 48 hours, membrane proteins were extracted and detected using the method described above.\nAfter U87 cells were treated with different concentrations of TMZ for 48 hours, membrane proteins were extracted and detected using the method described above.\nAfter U87 cells were treated with 5 µg/mL TMZ for varying durations, membrane proteins were extracted and analyzed using the method described above."}, "[3]": {"assay": "Maximum tolerated dose study", "design": "species or system Male Balb/c mice", "conditions": "mouse, in vivo, iv; tail vein, 14 days monitoring; dose at which no mice died; expressed as DOX", "protocol": "The body weight changes of the mice were recorded daily (relative body weight change = daily body weight / initial body weight), with continuous monitoring for 14 days to observe whether any mice died."}, "GRP78 protein [4]": {"tested_on": "GRP78 protein", "assay": "Western blot of GRP78 protein in tumors of orthotopic glioma mice", "type": "in vivo, nude mice", "conditions": "TMZ 10 mg/mL by gavage, after 48 hours"}, "in situ glioma": {"tested_on": "in situ glioma", "assay": "Efficacy of TMZ combined with peptide-DOX complex in in situ glioma", "conditions": "TMZ 10 mg/kg by gavage Days 3-21; pHA-AO1HX-VAP-DOX equivalent to 3 mg/kg DOX tail vein Days 5-23; n = 10", "experimental": "The in situ glioma model was established as above, with the day of modeling set as Day 0. On Days 3, 5, 7, 9, 11, 13, 15, 17, 19, and 21, mice were administered TMZ by gavage at a single dose of 10 mg/kg."}, "[5]": {"assay": "In vivo distribution in nude mouse model of orthotopic glioma", "design": "species or system nude mice", "conditions": "DOX dose 5 mg/kg, tail vein, 30 minutes; compared to free DOX", "protocol": "Approximately 22 g nude mice were anesthetized and fixed onto a stereotaxic apparatus. An orthotopic glioma mouse model was established by injecting 5 µL of U87 cell suspension (8×10^5 cells) with microsyringe into the striatum of the mice (0.6 mm anteroposterior to the bregma, 1.8 mm lateral to the midline, and 3 mm ventral to the surface). Ten days after tumor implantation, the mice were administered DOX (5 mg/kg) or pHA-AOnHX-VAP-DOX (n = 1, 2, 3, 5; DOX dose: 5 mg/kg) via tail vein injection. Thirty minutes later, the mice were anesthetized, perfused with PBS, and the major organs including the brain, heart, liver, spleen, lungs, and kidneys were collected. The tissues from each organ were blotted dry with filter paper and weighed. Then, according to the weight of each organ, a specific volume of isopropanol containing 0.075 M HCl and 10% water was added, followed by homogenization. After overnight incubation at 4°C, the samples were centrifuged, and the supernatants were collected for analysis. […] As depicted in Figure 30, the accumulation of DOX in the heart was reduced by pHA-AOnHX-VAP-DOX (n = 1, 2, 3, 5), while the drug concentration in the blood was increased."}, "[6]": {"target": "glucose-regulated protein GRP78 (Homo sapiens, UniProt P11021)", "sequence (P11021 19-654)": "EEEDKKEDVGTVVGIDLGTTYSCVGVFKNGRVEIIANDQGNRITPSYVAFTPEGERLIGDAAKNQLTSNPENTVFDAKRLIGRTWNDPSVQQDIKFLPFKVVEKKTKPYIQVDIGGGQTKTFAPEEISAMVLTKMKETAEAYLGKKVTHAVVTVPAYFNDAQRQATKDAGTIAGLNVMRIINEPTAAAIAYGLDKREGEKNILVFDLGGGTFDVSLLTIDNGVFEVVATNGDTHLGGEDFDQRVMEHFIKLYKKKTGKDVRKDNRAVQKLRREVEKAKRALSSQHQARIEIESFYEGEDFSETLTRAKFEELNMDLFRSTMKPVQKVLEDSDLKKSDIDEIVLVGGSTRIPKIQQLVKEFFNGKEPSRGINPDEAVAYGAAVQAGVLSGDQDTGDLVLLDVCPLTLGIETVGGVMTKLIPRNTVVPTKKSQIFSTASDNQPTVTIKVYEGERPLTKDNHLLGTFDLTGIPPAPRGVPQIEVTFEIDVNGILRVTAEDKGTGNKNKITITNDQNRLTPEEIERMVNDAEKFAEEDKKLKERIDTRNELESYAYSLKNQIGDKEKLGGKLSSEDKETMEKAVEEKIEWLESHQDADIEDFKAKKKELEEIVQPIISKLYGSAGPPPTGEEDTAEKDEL", "conditions": "previously validated by research team; cited from earlier work"}}, "note": "Where no end group is shown, it is not given here. [ ]: non-standard residue; d: D form."}
{"compound": "COc1cccc2c1C(=O)c1c(O)c3c(c(O)c1C2=O)C[C@@](O)(C(=O)CO)C[C@@H]3O[C@H]1C[C@H](N)[C@H](O)[C@H](C)O1", "note": "[DOX, doxorubicin]", "values": [{"measurement": "uptake by U87 cells (intracellular DOX)", "setting": "Tumor cells U87", "value": "higher cellular uptake"}, {"measurement": "solubility at 24 h", "setting": "[1]", "value": "220 ± 30", "unit": "µg/mL"}, {"measurement": "median survival time", "setting": "U87 orthotopic glioma", "value": 35.5, "unit": "days"}, {"measurement": "expression of GRP78 protein on the cell membrane surface of U87 cells", "setting": "GRP78 protein [2]; different concentrations, 48 hours", "value": "significantly upregulated"}, {"measurement": "MTD at 336 h", "setting": "[3]", "value": "~10", "unit": "mg/kg"}]}
{"compound": "Cn1nnc2c(C(N)=O)ncn2c1=O", "note": "[TMZ, temozolomide]", "values": [{"measurement": "expression of GRP78 protein in tumor tissue relative to control group", "setting": "GRP78 protein [4]", "value": 1.45, "unit": "times"}, {"measurement": "median survival time", "setting": "in situ glioma", "value": 48, "unit": "days"}, {"measurement": "time after which GRP78 protein on the cell membrane began to significantly upregulate", "setting": "GRP78 protein [2]; 5 µg/mL TMZ, varying durations up to 48 hours", "value": 12, "unit": "h"}]}
{"compound": "COc1cccc2c1C(=O)c1c(O)c3c(c(O)c1C2=O)C[C@@](O)(C(CO)=NNC(=O)CCCCCN1C(=O)CC(SC[C@H](NC(=O)CCOCCOCCNC(=O)c2ccc(O)cc2)C(=O)N2CCC[C@@H]2C(=O)N[C@H](C)C(=O)N[C@@H](C(=O)N[C@H](CCCNC(=N)N)C(=O)N[C@@H](C(=O)N[C@H](CC(N)=O)C(=O)N[C@H](CO)C(=O)O)[C@H](C)O)C(C)C)C1=O)C[C@@H]3O[C@H]1C[C@H](N)[C@H](O)[C@H](C)O1", "note": "(stereo partly drawn) [pHA-AO2HX-VAP-DOX]", "values": [{"measurement": "brain accumulation of DOX", "setting": "[5]", "value": "greatest increase"}]}
{"compound": "^DVAP: D-type amino acid sequence ^DP^DA^DV^DR^DT^DN^DS, SEQ ID NO: 3 ([dP][dA][dV][dR][dT][dN][dS])", "values": [{"measurement": "binding affinity to glucose-regulated protein GRP78", "setting": "[6]", "value": "high binding affinity"}]}
{"compound": "^LVAP: L-type amino acid sequence SNTRVAP, SEQ ID NO: 1", "values": [{"measurement": "binding affinity to glucose-regulated protein GRP78", "setting": "[6]", "value": "high binding affinity"}]}
{"compound": "^SVAP: D-type amino acid sequence ^DS^DN^DT^DR^DV^DA^DP, SEQ ID NO: 4 (SNTRVAP; all D-amino acids; VARIANT 1..7: note = D type amino acid)", "values": [{"measurement": "binding affinity to glucose-regulated protein GRP78", "setting": "[6]", "value": "high binding affinity"}]}
